Results published in patent US20250268827A1, “COMBINED MEDICINAL DRUG INCLUDING LIPOSOME COMPOSITION ENCOMPASSING TOPOTECAN OR SALT THEREOF AND DNA DAMAGE REPAIR INHIBITOR” (FUJIFILM Corporation, priority 2022, published 2025).
Like-named read-outs stand apart in the source and are kept apart here.

Legend:
[1] = system: Capan-1 cells (human pancreatic cancer cell line) subcutaneous tumor; assay: Drug efficacy in pancreatic cancer cell line (Capan-1) model, combined use of Lipo and olaparib (Test Example 1); type: in vivo, mouse Balb/cAJcl-nu/nu; conditions: same dosing as Table 1; relative to no-drug group; day 28
[2] = system: Capan-1 (pancreatic cancer cell line); assay: In vitro cell proliferation inhibition test with isobologram analysis (Test Example 3), Capan-1; type: cell-based, human; conditions: for effect of combined use with Lipo in isobologram analysis / DNA damage repair inhibitor (Ceralasertib) FIC: Capan-1; for effect of combined use with Lipo in isobologram analysis: DNA damage repair inhibitor combined with Lipo, 6 days culture; for IC50: Homo sapiens, CAPAN-1, Capan-1, read-out: IC50 value (nmol/L) of DNA damage repair inhibitor (Ceralasertib) at each of concentration points of Lipo
Protocol: (§1) A Cell Counting Kit-8 (Dojindo Molecular Technologies. Inc.) was used for a living cell detection method, and the absorbance at 460 nm after 4 hours of reagent addition was measured with a microplate reader to obtain the IC50 value. [table] As various DNA damage repair inhibitors to be used in combination with the liposome composition, the following DNA damage repair inhibitors were used; ceralasertib ([…] Biotechnology, Inc.) as an ATR inhibitor, prexasertib ([…] Biotechnology, Inc.) as a CHK1/2 inhibitor, […] Biotechnology, Inc.) as a DNA-PK inhibitor, […] Biotechnology, Inc.) as an ATM inhibitor, ZN-c3 ([…] Biotechnology, Inc.) as a WEE1 inhibitor, and olaparib ([…] Biotechnology, Inc.) as a PARP inhibitor. […] [table] […] First, the IC50 value of Lipo alone and the IC50 value of various DNA damage repair inhibitors alone were determined. Next, various DNA damage repair inhibitors were used in combination at each of the set concentration points of Lipo, and the IC50 value of the DNA damage repair inhibitors was determined. A value obtained by […] was denoted as “Lipo FIC”, and a value obtained by dividing this value by the IC50 value of the various DNA damage repair inhibitors was denoted as “various DNA damage repair inhibitor FIC”, and then these two values were recorded as one set of values. […] In addition, Lipo was used in combination at each of the concentration points of the various DNA damage repair inhibitors which were set in the same manner, and the IC50 value of the Lipo was determined. A value obtained by dividing this value by the IC50 value of Lipo alone was denoted as “Lipo FIC”, and a value obtained by dividing this value by the IC50 value of the various DNA damage repair inhibitors was denoted as “various DNA damage repair inhibitor FIC”, and then these two values were recorded as one set of values. […] As shown in Table 8 and Table 9, an isobologram was obtained by plotting each set of these values on the graph of various DNA damage repair inhibitors FIC v.s. Lipo FIC. […] A case of being plotted to the right indicates an “antagonistic effect”, which is regarded as an inappropriate effect of combined use. FIG. 5 to FIG. 21 show the results.

[3] = system: ES-2 (ovarian cancer cell line); assay: In vitro cell proliferation inhibition test with isobologram analysis (Test Example 3), ES-2; type: cell-based; conditions: DNA damage repair inhibitor combined with Lipo, 3 days culture
Protocol: as §1

[4] = system: DMS114 (lung cancer cell line); assay: In vitro cell proliferation inhibition test with isobologram analysis (Test Example 3), DMS 114; type: cell-based; conditions: DNA damage repair inhibitor combined with Lipo, 5 days culture
Protocol: as §1

Structure (SMILES): CC[C@@]1(O)C(=O)OCc2c1cc1n(c2=O)Cc2cc3c(CN(C)C)c(O)ccc3nc2-1 [Topotecan]
- Drug efficacy (tumor diameter) 28 days after administration, proportion to Comparative Example 1 [1]: (80%)
- Safety (body weight) 28 days after administration, proportion to Comparative Example 1 (mouse, in vivo): (96%)

Structure (SMILES): COc1cc2ncc3c(c2cc1-c1cn(C)nc1C)n(-c1c(F)cncc1OC)c(=O)n3C [Example M4076]
- effect of combined use with Lipo in isobologram analysis [2]: additive effect
- effect of combined use with Lipo in isobologram analysis [3]: synergistic effect
- effect of combined use with Lipo in isobologram analysis [4]: synergistic effect

Structure (SMILES): C=CCn1c(=O)c2cnc(Nc3ccc(N4CCN(C)CC4)cc3)nc2n1-c1ccc2c(n1)[C@@](O)(CC)CC2 [ZN-c3]
- effect of combined use with Lipo in isobologram analysis [2]: additive effect
- effect of combined use with Lipo in isobologram analysis [3]: synergistic effect
- effect of combined use with Lipo in isobologram analysis [4]: additive effect

Structure (SMILES): C[C@@H]1COCCN1c1cc(C2([S@](C)(=N)=O)CC2)nc(-c2cc[nH]c3nccc2-3)n1 [Ceralasertib]
- effect of combined use with Lipo in isobologram analysis [2]: synergistic effect
- DNA damage repair inhibitor (Ceralasertib) FIC ([2]; Table 8, Lipo 0.0 nmol/L): 1.0
- DNA damage repair inhibitor (Ceralasertib) FIC ([2]; Table 8, Lipo 0.14 nmol/L): 0.7
- DNA damage repair inhibitor (Ceralasertib) FIC ([2]; Table 8, Lipo 0.41 nmol/L): 0.9
- DNA damage repair inhibitor (Ceralasertib) FIC ([2]; Table 8, Lipo 1.23 nmol/L): 0.9
- DNA damage repair inhibitor (Ceralasertib) FIC ([2]; Table 8, Lipo 3.7 nmol/L): 0.2
- DNA damage repair inhibitor (Ceralasertib) FIC ([2]; Table 8, Lipo 11.1 nmol/L): 0.02
- DNA damage repair inhibitor (Ceralasertib) FIC ([2]; Table 9, ceralasertib 0.0 nmol/L): 0.0
- DNA damage repair inhibitor (Ceralasertib) FIC ([2]; Table 9, ceralasertib 4.57 nmol/L with Lipo): 0.01
- DNA damage repair inhibitor (Ceralasertib) FIC ([2]; Table 9, ceralasertib 13.7 nmol/L with Lipo): 0.02
- DNA damage repair inhibitor (Ceralasertib) FIC ([2]; Table 9, ceralasertib 41.2 nmol/L with Lipo): 0.05
- DNA damage repair inhibitor (Ceralasertib) FIC ([2]; Table 9, ceralasertib 123 nmol/L with Lipo): 0.1
- DNA damage repair inhibitor (Ceralasertib) FIC ([2]; Table 9, ceralasertib 370 nmol/L with Lipo): 0.4
- IC50 ([2]; Lipo 0.0 nmol/L (ceralasertib alone)): 893 nmol/L
- IC50 ([2]; combined with Lipo 0.14 nmol/L): 634 nmol/L
- IC50 ([2]; combined with Lipo 0.41 nmol/L): 809 nmol/L
- IC50 ([2]; combined with Lipo 1.23 nmol/L): 798 nmol/L
- IC50 ([2]; combined with Lipo 3.7 nmol/L): 181 nmol/L
- IC50 ([2]; combined with Lipo 11.1 nmol/L): 14.9 nmol/L
- effect of combined use with Lipo in isobologram analysis [3]: synergistic effect
- effect of combined use with Lipo in isobologram analysis [4]: synergistic effect

Structure (SMILES): COc1cccc(OCCCN)c1-c1cc(Nc2cnc(C#N)cn2)n[nH]1 [prexasertib]
- effect of combined use with Lipo in isobologram analysis [3]: synergistic effect
- effect of combined use with Lipo in isobologram analysis [4]: synergistic effect

Structure (SMILES): COc1ccc([C@@H](O)c2cc(-c3ncnc4cc(N5CCOCC5)ccc34)c(F)cc2Cl)nn1 [Example M3814]
- effect of combined use with Lipo in isobologram analysis [2]: synergistic effect
- effect of combined use with Lipo in isobologram analysis [3]: additive effect
- effect of combined use with Lipo in isobologram analysis [4]: synergistic effect

Structure (SMILES): O=C(c1cc(Cc2n[nH]c(=O)c3ccccc23)ccc1F)N1CCN(C(=O)C2CC2)CC1 [Olaparib]
- Drug efficacy (tumor diameter) 28 days after administration, proportion to Comparative Example 1 [1]: (80%)
- effect of combined use with Lipo in isobologram analysis [2]: synergistic effect
- effect of combined use with Lipo in isobologram analysis [3]: synergistic effect
- effect of combined use with Lipo in isobologram analysis [4]: synergistic effect
- Safety (body weight: g) 28 days after administration (Capan-1 tumor-bearing female nude mice, Lipo 0.5 mg/kg or topotecan 5 mg/kg i.v. weekly x 4, olaparib 50 mg/kg i.p. daily x 6 days/week x 4 weeks, day 28): 103 g
- Safety (body weight) 28 days after administration, proportion to Comparative Example 1 (same dosing as Table 1, relative to no-drug group, day 28): (97%)
